Measured values taken from patent US20140171357A1, “VANCOMYCIN DERIVATIVES” (Seachald Pharmaceuticals, Inc., priority 2011, published 2014).
Converted amounts (≈) assume the structure as drawn.

Key:
[1] = tested on: methicillin-susceptible S. aureus (MSSA, 22); assay: MIC broth microdilution, MSSA; conditions: MSSA (22)
[2] = tested on: methicillin-resistant S. aureus (MRSA, 22); assay: MIC broth microdilution, MRSA; conditions: MRSA (22)
[3] = tested on: vancomycin-intermediate S. aureus (VISA, 5); assay: MIC broth microdilution, VISA
[4] = tested on: vancomycin-resistant S. aureus (VRSA, 6); assay: MIC broth microdilution, VRSA
[5] = tested on: heterogeneous VISA (hVISA, 10); assay: MIC broth microdilution, hVISA
[6] = tested on: S. pneumoniae (22); assay: MIC broth microdilution, S. pneumoniae; conditions: S. pneumoniae (22); MHB + lysed horse blood
[7] = tested on: Staphylococcus epidermidis (43 strains); assay: MIC broth microdilution, S. epidermidis; conditions: S. epidermidis (43)
[8] = tested on: VanA vancomycin-resistant E. faecium (10); assay: MIC broth microdilution, VanA E. faecium; conditions: E. faecium, VanA (10)
[9] = tested on: VanB vancomycin-resistant E. faecium (10); assay: MIC broth microdilution, VanB E. faecium; conditions: E. faecium, VanB (10)
[10] = tested on: S. aureus ATCC 25923; assay: Neutropenic murine thigh infection model; conditions: for AUCc-t (AUC difference between control and treated animals): 24 h time kill
[11] = tested on: VanA vancomycin-resistant E. faecalis (11); assay: MIC broth microdilution, VanA E. faecalis; conditions: E. faecalis, VanA (11)
[12] = tested on: VanB vancomycin-resistant E. faecalis (12); assay: MIC broth microdilution, VanB E. faecalis; conditions: E. faecalis, VanB (12)
[13] = tested on: Staphylococcus aureus (65 strains); assay: MIC broth microdilution, S. aureus all isolates; conditions: S. aureus (65), all resistance subsets
[14] = tested on: β-hemolytic streptococci (23); assay: MIC broth microdilution, β-hemolytic streptococci; conditions: for MIC 50% / MIC 90%: β-hemolytic streptococci (23), MHB + lysed horse blood
[15] = tested on: VanC enterococci (22); assay: MIC broth microdilution, vanC-carrying enterococci; conditions: VanC enterococci (22)
[16] = tested on: vancomycin-susceptible E. faecium (21); assay: MIC broth microdilution, vancomycin-susceptible E. faecium; conditions: E. faecium, vancomycin-susceptible (21)
[17] = tested on: vancomycin-susceptible E. faecalis (23); assay: MIC broth microdilution, vancomycin-susceptible E. faecalis; conditions: E. faecalis, vancomycin-susceptible (23)
[18] = 1 mg/kg single intraperitoneal dose
[19] = 4 mg/kg single intraperitoneal dose
[20] = 16 mg/kg single intraperitoneal dose

SMILES	MIC 50% [1] [µg/mL]	MIC 90% [1] [µg/mL]	MIC 50% [2] [µg/mL]	MIC 90% [2] [µg/mL]	MIC 50% [3] [µg/mL]	MIC 50% [4] [µg/mL]	MIC 50% [5] [µg/mL]	MIC 90% [5] [µg/mL]	MIC 50% [6] [µg/mL]	MIC 90% [6] [µg/mL]	MIC 50% [7] [µg/mL]	MIC 90% [7] [µg/mL]	MIC 50% [8] [µg/mL]	MIC 90% [8] [µg/mL]	MIC 50% [9] [µg/mL]	MIC 90% [9] [µg/mL]	Max Kill (maximum decrease from initial infection level) [10, 18] [Log10 CFU/thigh]	AUCc-t (AUC difference between control and treated animals) [10, 18]	Max Kill (maximum decrease from initial infection level) [10, 19] [Log10 CFU/thigh]	AUCc-t (AUC difference between control and treated animals) [10, 19]	also measured
CNC(CC(C)C)C(=O)NC1C(=O)NC(CC(N)=O)C(=O)NC2C(=O)NC3C(=O)NC(C(=O)NC(C(=O)NCCOCCOCCN)c4cc(O)cc(O)c4-c4cc3ccc4O)C(O)c3ccc(c(Cl)c3)Oc3cc2cc(c3OC2OC(CO)C(O)C(O)C2OC2CC(C)(NCc3ccc(-c4ccc(Cl)cc4)cc3)C(O)C(C)O2)Oc2ccc(cc2Cl)C1O (centres unmarked) [Compound 9]	0.12 (≈ 0.0674 µM)	0.12 (≈ 0.0674 µM)	0.12 (≈ 0.0674 µM)	0.12 (≈ 0.0674 µM)	0.25 (≈ 0.14 µM)	4 (≈ 2.25 µM)	0.12 (≈ 0.0674 µM)	0.12 (≈ 0.0674 µM)	0.06	0.06	0.06 (≈ 0.0337 µM)	0.06 (≈ 0.0337 µM)	1 (≈ 0.562 µM)	2 (≈ 1.12 µM)	0.06 (≈ 0.0337 µM)	0.12 (≈ 0.0674 µM)	0.98	7.4 (Log10 CFU/thigh)/hr	0.5	17.2 (Log10 CFU/thigh)/hr	Max Kill (maximum decrease from initial infection level) [10, 20]: −0.01 Log10 CFU/thigh; AUCc-t (AUC difference between control and treated animals) [10, 20]: 24.6 (Log10 CFU/thigh)/hr; MIC 50% [11]: 4 µg/mL (≈ 2.25 µM); MIC 90% [11]: 8 µg/mL (≈ 4.49 µM); MIC 50% [12]: 0.25 µg/mL (≈ 0.14 µM); MIC 90% [12]: 0.25 µg/mL (≈ 0.14 µM); MIC 50% [13]: 0.12 µg/mL (≈ 0.0674 µM); MIC 90% [13]: 0.5 µg/mL (≈ 0.281 µM); MIC 50% [14]: 0.06 µg/mL; MIC 90% [14]: 0.12 µg/mL; MIC 50% [15]: 0.12 µg/mL (≈ 0.0674 µM); MIC 90% [15]: 0.5 µg/mL (≈ 0.281 µM); MIC 50% [16]: 0.06 µg/mL (≈ 0.0337 µM); MIC 90% [16]: 0.12 µg/mL (≈ 0.0674 µM); MIC 50% [17]: 0.12 µg/mL (≈ 0.0674 µM); MIC 90% [17]: 0.25 µg/mL (≈ 0.14 µM)
CNC(CC(C)C)C(=O)NC1C(=O)NC(CC(N)=O)C(=O)NC2C(=O)NC3C(=O)NC(C(=O)NC(C(=O)NCCOCCOCCN(C)C)c4cc(O)cc(O)c4-c4cc3ccc4O)C(O)c3ccc(c(Cl)c3)Oc3cc2cc(c3OC2OC(CO)C(O)C(O)C2OC2CC(C)(NCc3ccc(-c4ccc(Cl)cc4)cc3)C(O)C(C)O2)Oc2ccc(cc2Cl)C1O (centres unmarked) [Compound 10]	0.06 (≈ 0.0332 µM)	0.06 (≈ 0.0332 µM)	0.06 (≈ 0.0332 µM)	0.12 (≈ 0.0664 µM)	0.25 (≈ 0.138 µM)	4 (≈ 2.21 µM)	0.12 (≈ 0.0664 µM)	0.12 (≈ 0.0664 µM)	0.03	0.06	0.03 (≈ 0.0166 µM)	0.06 (≈ 0.0332 µM)	1 (≈ 0.553 µM)	2 (≈ 1.11 µM)	0.06 (≈ 0.0332 µM)	0.06 (≈ 0.0332 µM)	0.43	10.7 (Log10 CFU/thigh)/hr	−0.06	22.4 (Log10 CFU/thigh)/hr	Max Kill (maximum decrease from initial infection level) [10, 20]: −0.02 Log10 CFU/thigh; AUCc-t (AUC difference between control and treated animals) [10, 20]: 25.6 (Log10 CFU/thigh)/hr; MIC 50% [11]: 4 µg/mL (≈ 2.21 µM); MIC 90% [11]: 8 µg/mL (≈ 4.42 µM); MIC 50% [12]: 0.12 µg/mL (≈ 0.0664 µM); MIC 90% [12]: 0.25 µg/mL (≈ 0.138 µM); MIC 50% [13]: 0.06 µg/mL (≈ 0.0332 µM); MIC 90% [13]: 0.25 µg/mL (≈ 0.138 µM); fold more potent than teicoplanin and daptomycin ([14]; β-hemolytic streptococci): two- to four; fold more potent than vancomycin ([14]; β-hemolytic streptococci): four- to eight; MIC 50% [14]: 0.03 µg/mL; MIC 90% [14]: 0.12 µg/mL; MIC 50% [15]: 0.12 µg/mL (≈ 0.0664 µM); MIC 90% [15]: 0.25 µg/mL (≈ 0.138 µM); MIC 50% [16]: 0.06 µg/mL (≈ 0.0332 µM); MIC 90% [16]: 0.06 µg/mL (≈ 0.0332 µM); MIC 50% [17]: 0.12 µg/mL (≈ 0.0664 µM); MIC 90% [17]: 0.12 µg/mL (≈ 0.0664 µM)
